Assay results: patent publication US9096589B2, “Heteroaromatic phenylimidazole derivatives as PDE10A enzyme inhibitors” (H. Lundbeck A/S, priority 2009, dated 2015)

Test system: rats
Test: not given
Settings: cited from earlier work

Row | SMILES | reduction of amphetamine induced hyperactivity
1 | COc1ccc(Cc2nccc3cc(OC)c(OC)cc23)cc1OC [Papaverine, papaverine] | insignificant

Test system: rats
Test: not given
Settings: alone; cited from earlier work

Row | SMILES | catalepsy on its own
2 | COc1ccc(Cc2nccc3cc(OC)c(OC)cc23)cc1OC [Papaverine, papaverine] | did not cause catalepsy on its own

Same assay, conditions: with haloperidol; cited from earlier work

Row | SMILES | effect on the cataleptic effect of the D2 receptor antagonist haloperidol
3 | COc1ccc(Cc2nccc3cc(OC)c(OC)cc23)cc1OC [Papaverine, papaverine] | potentiated the cataleptic effect

Target: PDE10A (Homo sapiens (Human), UniProt Q9Y233)
Test: PDE10A inhibition assay
Format: biochemical
Settings: not given
In short: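 Human PDE10A catalytic domain (aa 440-779) was expressed in E. coli BL21(DE3), with enzyme set to convert 20-25% of substrate. Reactions used 5 nM [3H]cAMP in 50 mM HEPES pH 7.6, 10 mM MgCl2, 0.02% Tween20 and 0.1 mg/ml BSA for 1 h at rt, read by yttrium silicate SPA. IC50 is relative to the uninhibited control.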

PDE10A, sequence (Q9Y233 716-1055): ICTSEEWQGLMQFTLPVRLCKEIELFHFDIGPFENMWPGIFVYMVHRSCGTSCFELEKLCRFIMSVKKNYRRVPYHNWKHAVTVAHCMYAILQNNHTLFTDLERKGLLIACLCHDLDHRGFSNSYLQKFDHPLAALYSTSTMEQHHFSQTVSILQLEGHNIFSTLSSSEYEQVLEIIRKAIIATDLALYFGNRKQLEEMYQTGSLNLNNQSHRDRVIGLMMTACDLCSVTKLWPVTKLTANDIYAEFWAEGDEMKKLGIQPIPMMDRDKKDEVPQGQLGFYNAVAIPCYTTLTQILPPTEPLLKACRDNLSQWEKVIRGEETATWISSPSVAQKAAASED

Row | SMILES | IC50 [nM]
4 | COc1ccc(C)n2nc(CCc3nc(-c4cscc4C)cn3C)nc12 [8-Methoxy-5-methyl-2-{2-[1-methyl-4-(4-methyl-thiophen-3-yl)-1H-imidazol-2-yl]-ethyl}-[1,2,4]triazolo[1,5-a]pyridine] | 3.1
5 | COc1ccc(C)n2nc(CCc3nc(-c4ccc(C)o4)cn3C)nc12 [8-Methoxy-5-methyl-2-{2-[1-methyl-4-(5-methyl-furan-2-yl)-1H-imidazol-2-yl]-ethyl}-[1,2,4]triazolo[1,5-a]pyridine] | 20
6 | Cc1cccc2nc(CCc3nc(-c4cccs4)cn3C[C@@H](O)CNCCO)nn12 [(S)-1-(2-Hydroxy-ethylamino)-3-{2-[2-(5-methyl-[1,2,4]triazolo[1,5-a]pyridin-2-yl)-ethyl]-4-thiophen-2-yl-imidazol-1-yl}-propan-2-ol] | 30
7 | Cc1cccc2nc(CCc3nc(-c4cccs4)cn3C[C@@H](O)CN(C)C(C)C)nn12 [(S)-1-(Isopropyl-methyl-amino)-3-{2-[2-(5-methyl-[1,2,4]triazolo[1,5-a]pyridin-2-yl)-ethyl]-4-thiophen-2-yl-imidazol-1-yl}-propan-2-ol] | 97
8 | CCN(CC)C[C@H](O)Cn1cc(-c2cccs2)nc1CCc1nc2cccc(C)n2n1 [(S)-1-Diethylamino-3-{2-[2-(5-methyl-[1,2,4]triazolo[1,5-a]pyridin-2-yl)-ethyl]-4-thiophen-2-yl-imidazol-1-yl}-propan-2-ol] | 77
9 | Cc1cccc2nc(CCc3nc(-c4cccs4)cn3C[C@@H](O)CN(C)C)nn12 [(S)-1-Dimethylamino-3-{2-[2-(5-methyl-[1,2,4]triazolo[1,5-a]pyridin-2-yl)-ethyl]-4-thiophen-2-yl-imidazol-1-yl}-propan-2-ol] | 47
10 | Cc1cccc2nc(CCc3nc(-c4cccs4)cn3C[C@@H](O)CNC(C)C)nn12 [(S)-1-Isopropylamino-3-{2-[2-(5-methyl-[1,2,4]triazolo[1,5-a]pyridin-2-yl)-ethyl]-4-thiophen-2-yl-imidazol-1-yl}-propan-2-ol] | 46
11 | Cc1cccc2nc(CCc3nc(-c4cccs4)cn3C[C@@H](O)CN(C)CCO)nn12 [(S)-1-[(2-Hydroxy-ethyl)-methyl-amino]-3-{2-[2-(5-methyl-[1,2,4]triazolo[1,5-a]pyridin-2-yl)-ethyl]-4-thiophen-2-yl-imidazol-1-yl}-propan-2-ol] | 16
12 | Cc1cccc2nc(CCc3nc(-c4cccs4)cn3C[C@@H](O)CN3CCOCC3)nn12 [(S)-1-{2-[2-(5-Methyl-[1,2,4]triazolo[1,5-a]pyridin-2-yl)-ethyl]-4-thiophen-2-yl-imidazol-1-yl}-3-morpholin-4-yl-propan-2-ol] | 14
13 | Cc1cccc2nc(CCc3nc(-c4cccs4)cn3C[C@@H](O)CN3CCCC3)nn12 [(S)-1-{2-[2-(5-Methyl-[1,2,4]triazolo[1,5-a]pyridin-2-yl)-ethyl]-4-thiophen-2-yl-imidazol-1-yl}-3-pyrrolidin-1-yl-propan-2-ol] | 58
14 | Cc1cc(C)n2cc(CCc3nc(-c4cccs4)cn3[C@@H](C)CO)nc2n1 [(S)-2-{2-[2-(5,7-Dimethyl-imidazo[1,2-a]pyrimidin-2-yl)-ethyl]-4-thiophen-2-yl-imidazol-1-yl}-propan-1-ol] | 8.8
15 | CNCC[C@H](O)Cn1cc(-c2cccs2)nc1CCc1nc2cccc(C)n2n1 [(S)-4-Methylamino-1-{2-[2-(5-methyl-[1,2,4]triazolo[1,5-a]pyridin-2-yl)-ethyl]-4-thiophen-2-yl-imidazol-1-yl}-butan-2-ol] | 51
16 | Cc1cnc(C)n2nc(CCc3nc(-c4nccs4)cn3C)nc12 [,8-Dimethyl-2-[2-(1-methyl-4-thiazol-2-yl-1H-imidazol-2-yl)-ethyl]-[1,2,4]triazolo[1,5-c]pyrimidine] | 12
17 | Cc1cccc2nc(CCc3nc(-c4cccs4)cn3C[C@@H](O)CN(C)CC#N)nn12 [[((S)-2-Hydroxy-3-{2-[2-(5-methyl-[1,2,4]triazolo[1,5-a]pyridin-2-yl)-ethyl]-4-thiophen-2-yl-imidazol-1-yl}-propyl)-methyl-amino]-acetonitrile] | 8.8

The next lines start with the values.

Row | IC50 [nM] | SMILES
18 | 36 | Cc1cccn2nc(CCc3nc(-c4cncs4)cn3C)nc12 [8-Methyl-2-[2-(1-methyl-4-thiazol-5-yl-1H-imidazol-2-yl)-ethyl]-[1,2,4]triazolo[1,5-a]pyridine]
19 | 15 | Cc1cccn2nc(CCc3nc(-c4cccs4)cn3C)nc12 [8-Methyl-2-[2-(1-methyl-4-thiophen-2-yl-1H-imidazol-2-yl)-ethyl]-[1,2,4]triazolo[1,5-a]pyridine]
20 | 64 | Cc1cccn2nc(CCc3nc(-c4cccnc4)c[nH]3)nc12 [8-Methyl-2-[2-(4-pyridin-3-yl-1H-imidazol-2-yl)-ethyl]-[1,2,4]triazolo[1,5-a]pyridine]
21 | 0.99 | Cc1cccn2nc(CCc3nc(-c4cccs4)c[nH]3)nc12 [8-Methyl-2-[2-(4-thiophen-2-yl-1H-imidazol-2-yl)-ethyl]-[1,2,4]triazolo[1,5-a]pyridine]
22 | 2.8 | Cc1cccc2nc(CCc3nc(-c4cccs4)cn3C[C@@H](O)CCl)nn12 [(R)-1-Chloro-3-{2-[2-(5-methyl-[1,2,4]triazolo[1,5-a]pyridin-2-yl)-ethyl]-4-thiophen-2-yl-imidazol-1-yl}-propan-2-ol]
23 | 70 | CNC[C@H](O)Cn1cc(-c2cccs2)nc1CCc1nc2cccc(C)n2n1 [(S)-1-Methylamino-3-{2-[2-(5-methyl-[1,2,4]triazolo[1,5-a]pyridin-2-yl)-ethyl]-4-thiophen-2-yl-imidazol-1-yl}-propan-2-ol]
24 | 6.4 | Cc1cccc2nc(CCc3nc(-c4cccs4)cn3[C@@H](C)CO)nn12 [(S)-2-{2-[2-(5-Methyl-[1,2,4]triazolo[1,5-a]pyridin-2-yl)-ethyl]-4-thiophen-2-yl-imidazol-1-yl}-propan-1-ol]

Test system: rats
Test: not given
Settings: cited from earlier work
Remark: another data set of the same source

Row | SMILES | hyperactivity induced by PCP
25 | COc1ccc(Cc2nccc3cc(OC)c(OC)cc23)cc1OC [Papaverine, papaverine] | reduced hyperactivity
